Assay [1] concerns the target T1, Human KIF18A (amino acid sequence 1-417) (Homo sapiens, UniProt Q8NI77).
T1 construct: purchased Viva Biotech (Shanghai) Ltd
T1 sequence (Q8NI77 1-417): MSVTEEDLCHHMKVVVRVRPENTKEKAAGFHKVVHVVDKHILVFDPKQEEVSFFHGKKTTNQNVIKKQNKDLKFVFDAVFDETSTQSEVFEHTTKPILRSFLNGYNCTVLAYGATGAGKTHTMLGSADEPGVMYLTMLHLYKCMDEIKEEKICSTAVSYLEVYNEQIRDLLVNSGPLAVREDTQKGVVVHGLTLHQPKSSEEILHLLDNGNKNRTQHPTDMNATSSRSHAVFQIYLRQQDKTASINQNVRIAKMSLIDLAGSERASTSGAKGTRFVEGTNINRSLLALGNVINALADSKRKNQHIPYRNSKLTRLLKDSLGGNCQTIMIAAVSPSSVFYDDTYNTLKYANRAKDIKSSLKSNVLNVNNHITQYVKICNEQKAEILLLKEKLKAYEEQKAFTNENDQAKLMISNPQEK
The assay can be described thus: Enzymatic activity test (ADP-Glo, microtubule-stimulated ATPase). In kind it is biochemical. The note with it: 60 µg/mL microtubules, 25 µM ATP, 2.5 nM KIF18A protein, 120 min at ambient temperature, chemiluminescence; read-out: KIF18A IC50. An outline of the steps: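 KIF18A (1-417) at 2.5 nM with 60 µg/mL microtubules and 25 µM ATP, compounds at 0-10 µM final, reacted 120 min at ambient temperature. ADP formed was read by ADP-Glo chemiluminescence after two 30 min room-temperature steps.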
(ADP-Glo first removes unused ATP, then detects ADP through luciferase.)

The test system of assay [2] is OVCAR3 cells. Kind of assay: Cell proliferation activity test (CyQUANT Direct). In kind it is cell-based. As to conditions: 3 days, 0.2% DMSO, CyQUANT fluorescence. An outline of the steps: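 OVCAR3 cells in RPMI-1640 with 10% FBS were seeded, then treated overnight later with compound at final 0–10 µM (0.2% DMSO) for 3 days at 37°C, 5% CO2. Proliferation was read as CyQUANT Direct fluorescence after 60 min at 37°C.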

The subject of assay [3] is HT29 cells. The assay can be described thus: CyQuant cell proliferation activity test. As to conditions: HT29 at 2000 cells per well, 3 days, 0.2% DMSO, XLFIT. It counts as cell-based. Summed up:
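Cells seeded at 2000/well in RPMI-1640 with 10% FBS, left overnight, then exposed 3 days at 37 °C, 5% CO2 to a 9-point 3-fold series from 3000 nM (0.2% DMSO). CyQuant signal read after 1 h; IC50 from curve fit.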

Where two headings read alike, the source gives them in different places.

The term IC50 denotes the concentration needed to halve the response being measured. As for “Methyl(3^4Z,7Z)-1^4,1^4-difluoro-4^4-((2-hydroxyethyl)sulfonamido)-2^6-methyl 3^1H-2(2,4)-pyrimidin-1(1,3),5(1,4)-dipiperidin-3(4,1)-triazole-4(1,2)-benzocyclooct-7-en-4^5 carboxylate [Example 92B]”, the figures for the IC50 in assay [1], in assay [2] and in assay [3] (read-out: HT-29 IC50) were 0.405 µM, 0.173 µM and 0.164 µM, respectively.

On to `Cc1cc2nc(n1)N1CCC(F)(F)C(CCCC3=CC=C(S3)c3cc(NS(=O)(=O)CCO)ccc3C(=O)N2)C1` (stereo not drawn) [Example 58, N-(1^4,1^4-difluoro-2^6-methyl-4-oxo-3-aza-2(2,4)-pyrimidin-1(1,3)-piperidin-6(2,5)-thiophene-5(1,2)-benzoazacyclononane-5^4-yl)-2-hydroxyethane-1-sulfonamide], for which the IC50 was 0.067 µM in assay [1]; 0.116 µM in assay [2] (Homo sapiens, OVCAR-3, 72 h); 0.042 µM in assay [3] (Homo sapiens, HT-29, 72 h).

For the molecule `Cc1cc2nc(n1)N1CCC(F)(F)C(/C=C\CC3CCN(CC3)c3cc(NS(=O)(=O)CCO)c4c(c3C(=O)N2)CCC4)C1` (stereo not drawn) [Example 4, N-(1^4,1^4-difluoro-2^6-methyl-4-oxo-5^2,5^3-dihydro-5^1H-3-aza-2(2,4)-pyrimidin-1(1,3),6(1,4)-dipiperidin-5(4,5)-indenoheterocyclonon-8-en-5^7-yl)-2-hydroxyethane-1-sulfonamide], the IC50 in assay [1] was 0.404 µM; in assay [2] (Homo sapiens, OVCAR-3, 72 h), 0.049 µM; in assay [3] (Homo sapiens, HT-29, 72 h), 0.055 µM.

In the case of `Cc1cc2nc(n1)N1CCC(F)(F)C(/C=C\CC3CCN(CC3)c3cc(NS(=O)(=O)C(C)(C)CO)c4c(c3C(=O)N2)CCC4=O)C1` (stereo not drawn) [Example 12, (Z)-N-(1^4,1^4-difluoro-2^6-methyl-5^1,4-dioxo-5^2,5^3-dihydro-5^1hydro-3-aza-2(2,4)-pyrimidin-1(1,3),6(1,4)-dipiperidin-5(4, 5)-indenocyclonofin-8-en-5^7-yl)-1-hydroxy-2-methylpropane-2-sulfonamide], the IC50 came to 0.172 µM in assay [1]; 0.096 µM in assay [2] (Homo sapiens, OVCAR-3, 72 h); 0.165 µM in assay [3] (Homo sapiens, HT-29, 72 h).

“N-(1^4,1^4,5^1,5^1-tetrafluoro-2^6-methyl-4-dioxo-5^2,5^3-dihydro-5^1H-3-aza-2(2,4)-pyrimidin-1(1,3),6(1,4)-dipiperidin-5(4,5)-benzofurancyclononane-8-en-5^7-yl)-ethanesulfonamide [Example 20]”: the values for the IC50 in assay [1], in assay [2] and in assay [3] (read-out: HT-29 IC50) were 0.41 µM, 0.057 µM and 0.069 µM, respectively.

“N-(1^4,1^4-difluoro-2^6-methyl-5^1,4-dioxo-5^1,5^2,5^3,5^4-tetrahydro-3-aza-2(2,4)-pyrimidin-1(1,3),6(1,4)-dipiperidin-5(5,6)-in denoheterocyclonon-8-en-5^8-yl)-2-hydroxyethane-1-sulfonamide [Example 8]”: the half-inhibitory concentration (IC50) in assay [1] came to 0.048 µM; in assay [2], 0.037 µM; in assay [3] (read-out: HT-29 IC50) it was 0.043 µM.

Values taken from patent publication EP4772509A1, “KINESIN KIF18A INHIBITOR, AND APPLICATION THEREOF” (Shanghai Apeiron Therapeutics Company Limited, priority 2023, dated 2025).
